# Test results as given in article PMC6826616, “Topical 2′-Hydroxyflavanone for Cutaneous Melanoma” (Cancers, 2019).
# Assay: Single dose pharmacokinetic study of 2HF
# Assay type: in vivo, Sprague Dawley male rats
# Conditions: male SD rats
# Method: Figure 7 Plasma concentration vs. time profile of 2HF in rats. Mean plasma concentration vs. time profile of 2HF following intravenous and oral administration of 2HF at 5 mg/kg and 10 mg/kg, respectively, to male SD rats (n = 3).
# Pharmacokinetic studies of 2HF were performed by GVK Biosciences Pvt. Ltd., Hyderabad, India in Sprague Dawley male rats (~280 g). Rats were dosed either orally through gastric gavage needle of 10 mg/kg 2HF (0.5% Methyl cellulose + 0.5% Tween80) or intravenous 5 mg/kg 2HF (in 10% DMSO). Then, 200–300 µL blood was collected at each time point and plasma was separated; 50 µL plasma sample was deproteinized with 200 µL of acetonitrile followed by centrifugation at 2000× g for 5 min and supernatant was analyzed for 2HF by LC-MS/MS. Pharmacokinetic parameters were calculated for individual animals by a non-compartmental model with Phoenix software version 8.1 (CERTARA, Princeton, NJ, USA).
smiles,measurement,setting,value
"O=C1CC(c2ccccc2O)Oc2ccccc21 (stereo not drawn) [2HF, 2′-hydroxyflavanone]",oral bioavailability,10 mg/kg oral vs 5 mg/kg IV,Poor
same,plasma concentrations orally compared with IV,10 mg/kg oral vs 5 mg/kg IV,two log-order lower
same,clearance,after either oral or IV administration,rapid clearance
